Measurements as given in patent US11629129B2, “Microbiocidal picolinamide derivatives” (SYNGENTA PARTICIPATIONS AG, priority 2018, dated 2023).

Legend:
[1] = tested on: Botryotinia fuckeliana (Botrvtis cinerea); experiment: Botryotinia fuckeliana (Botrvtis cinerea)/Liquid Culture (Gray Mould); assay type: cell-based; conditions: Botrytis cinerea; 200 ppm in the formulation; liquid culture, growth inhibition photometrically 3-4 days after application; compared to untreated control; read-out: disease control
Procedure: (§1) Botryotinia fuckeliana (Botrvtis cinerea)/Liquid Culture (Gray Mould) Conidia of the fungus from cryogenic storage are directly mixed into nutrient broth (Vogels broth). After placing a (DMSO) solution of test compound into a microtiter plate (96-well format), the nutrient broth containing the fungal spores is added. The test plates are incubated at 24° C. and the inhibition of growth is determined photometrically 3-4 days after application.

[2] = tested on: Glomerella lagenarium (Colletotrichum lagenarium); experiment: Glomerella lagenarium (Colletotrichum lagenarium)/Liquid Culture (Anthracnose); assay type: cell-based; conditions: Colletotrichum orbiculare; 200 ppm in the formulation; liquid culture, growth inhibition photometrically 3 to 4 days after application; compared to untreated control; read-out: disease control
Procedure: as §1, with “Glomerella lagenarium (Colletotrichum lagenarium)/Liquid” for “Botryotinia fuckeliana (Botrvtis cinerea)/Liquid”, “(Anthracnose)” for “(Gray Mould)”, “(PDB potato dextrose” for “(Vogels”, “measured” for “determined”, “3 to 4” for “3-4”

[3] = tested on: Mycosphaerella graminicola (Septoria tritici); experiment: Mycosphaerella graminicola (Septoria tritici)/Liquid Culture (Septoria Blotch); assay type: cell-based; conditions: Zymoseptoria tritici; 200 ppm in the formulation; liquid culture, growth inhibition photometrically 4 to 5 days after application; compared to untreated control; read-out: disease control
Procedure: as §1, with “Mycosphaerella graminicola (Septoria tritici)/Liquid” for “Botryotinia fuckeliana (Botrvtis cinerea)/Liquid”, “(Septoria Blotch)” for “(Gray Mould)”, “(PDB potato dextrose” for “(Vogels”, “4 to 5” for “3-4”

[4] = tested on: Phaeosphaeria nodorum (Septoria nodorum); experiment: Phaeosphaeria nodorum (Septoria nodorum)/Wheat/Leaf Disc Preventative (Glume Blotch); assay type: in vivo; conditions: Parastagonospora nodorum, foliar; 200 ppm in the formulation; wheat leaf segments cv. Kanzler, inoculated 2 days after application, assessed 5-7 days after application; compared to untreated; read-out: disease control
Procedure: Phaeosphaeria nodorum (Septoria nodorum)/Wheat/Leaf Disc Preventative (Glume Blotch) Wheat leaf segments cv. Kanzler are placed on agar in a multiwell plate (24-well format) and sprayed with the formulated test compound diluted in water. The leaf disks are inoculated with a spore suspension of the fungus 2 days after application. The inoculated test leaf disks are incubated at 20° C. and 75% rh under a light regime of 12 h light/12 h darkness in a climate cabinet and the activity of a compound is assessed as percent disease control compared to untreated when an appropriate level of disease damage appears in untreated check leaf disks (5-7 days after application).

[5] = tested on: Puccinia recondita f. sp. tritici; experiment: Puccinia recondita f. sp. tritici/Wheat/Leaf Disc Preventative (Brown Rust); assay type: in vivo; conditions: foliar, 200 ppm in the formulation, wheat leaf segments cv. Kanzler, inoculated 1 day after application, assessed 7-9 days after application, compared to untreated, read-out: disease control
Procedure: Puccinia recondita f. sp. tritici/Wheat/Leaf Disc Preventative (Brown Rust) Wheat leaf segments cv. Kanzler are placed on agar in multiwell plates (24-well format) and sprayed with the formulated test compound diluted in water. The leaf disks are inoculated with a spore suspension of the fungus 1 day after application. The inoculated leaf segments are incubated at 19° C. and 75% rh under a light regime of 12 h light/12 h darkness in a climate cabinet and the activity of a compound is assessed as percent disease control compared to untreated when an appropriate level of disease damage appears in untreated check leaf segments (7-9 days after application).

[6] = tested on: Mycosphaerella arachidis (Cercospora arachidicola); experiment: Mycosphaerella arachidis (Cercospora arachidicola)/Liquid Culture (Early Leaf Spot); assay type: cell-based; conditions: 200 ppm in the formulation, liquid culture, growth inhibition photometrically 4-5 days after application, compared to untreated control, read-out: disease control
Procedure: as §1, with “Mycosphaerella arachidis (Cercospora arachidicola)/Liquid” for “Botryotinia fuckeliana (Botrvtis cinerea)/Liquid”, “(Early Leaf Spot)” for “(Gray Mould)”, “(PDB potato dextrose” for “(Vogels”, “4-5” for “3-4”

[7] = tested on: Monographella nivalis (Microdochium nivale); experiment: Monographella nivalis (Microdochium nivale)/Liquid Culture (Foot Rot Cereals); assay type: cell-based; conditions: 200 ppm in the formulation, liquid culture, growth inhibition photometrically 4-5 days after application, compared to untreated control, read-out: disease control
Procedure: as §1, with “Monographella nivalis (Microdochium nivale)/Liquid” for “Botryotinia fuckeliana (Botrvtis cinerea)/Liquid”, “(Foot Rot Cereals)” for “(Gray Mould)”, “(PDB potato dextrose” for “(Vogels”, “4-5” for “3-4”

COc1ccnc(C(=O)N[C@@H](C)C(=O)O[C@@H](C)c2cccc(Oc3ccccc3)c2)c1O [I.aq.001, [(1S)-1-(3-phenoxyphenyl)ethyl] (2S)-2-[(3-hydroxy-4-methoxy-pyridine-2-carbonyl)amino] propanoate]
≥ 80%: inhibition of growth at 200 ppm [1] | inhibition of growth at 200 ppm [2] | inhibition of growth at 200 ppm [3] | pest or weed control at 200 ppm [4] | pest or weed control at 200 ppm [5]

COc1ccnc(C(=O)N[C@@H](C)C(=O)O[C@@H](C)c2ccc(Oc3ccc(Cl)cc3Cl)cc2)c1O [I.aw.001, [(1S)-1-[4-(2,4-dichlorophenoxy)phenyl]ethyl] (2S)-2-[(3-hydroxy-4-methoxy-pyridine-2-carbonyl)amino] propanoate]
≥ 80%: inhibition of growth at 200 ppm [2] | inhibition of growth at 200 ppm [6] | inhibition of growth at 200 ppm [3] | pest or weed control at 200 ppm [4] | pest or weed control at 200 ppm [5]

COc1ccnc(C(=O)N[C@@H](C)C(=O)O[C@@H](C)c2ccc(Oc3cccc(C(F)(F)F)c3)cc2)c1O [I.ax.001, [(1S)-1-[4-[3-(trifluoromethyl)phenoxy]phenyl]ethyl] (2S)-2-[(3-hydroxy-4-methoxy-pyridine-2-carbonyl)amino] propanoate]
≥ 80%: inhibition of growth at 200 ppm [2] | inhibition of growth at 200 ppm [6] | inhibition of growth at 200 ppm [3] | pest or weed control at 200 ppm [4] | pest or weed control at 200 ppm [5]

COc1ccnc(C(=O)N[C@@H](C)C(=O)O[C@@H](C)c2ccc(Oc3ccc(C(F)(F)F)cc3)cc2)c1O [I.ay.001, [(1S)-1-[4-[4-(trifluoromethyl)phenoxy]phenyl]ethyl] (2S)-2-[(3-hydroxy-4-methoxy-pyridine-2-carbonyl)amino] propanoate]
≥ 80%: inhibition of growth at 200 ppm [2] | inhibition of growth at 200 ppm [6] | inhibition of growth at 200 ppm [3] | pest or weed control at 200 ppm [4] | pest or weed control at 200 ppm [5] | inhibition of growth at 200 ppm [7]

COc1ccnc(C(=O)N[C@@H](C)C(=O)O[C@@H](C)c2ccc(Oc3ccc(C(F)(F)F)cc3Cl)cc2)c1O [I.az.001, [(1S)-1-[4-[2-chloro-4-(trifluoromethyl)phenoxy]phenyl]ethyl] (2S)-2-[(3-hydroxy-4-methoxy-pyridine-2-carbonyl)amino] propanoate]
≥ 80%: inhibition of growth at 200 ppm [2] | inhibition of growth at 200 ppm [6] | inhibition of growth at 200 ppm [3] | pest or weed control at 200 ppm [4]

COc1cc(-c2ccc([C@H](C)OC(=O)[C@H](C)NC(=O)c3nccc(OC)c3O)cc2)ccn1 [I.ba.001, [(1S)-1-[4-(2-methoxy-4-pyridyl)phenyl]ethyl] (2S)-2-[(3-hydroxy-4-methoxy-pyridine-2-carbonyl)amino] propanoate]
≥ 80%: inhibition of growth at 200 ppm [2] | inhibition of growth at 200 ppm [6] | inhibition of growth at 200 ppm [3] | pest or weed control at 200 ppm [4] | pest or weed control at 200 ppm [5] | inhibition of growth at 200 ppm [7]

COc1ccnc(C(=O)N[C@@H](C)C(=O)O[C@@H](C)c2ccc(-c3ccccc3)cc2)c1OC(C)=O [I.d.019, [(1S)-1-(4-phenylphenyl)ethyl] (2S)-2-[(3-acetoxy-4-methoxy-pyridine-2-carbonyl)amino] propanoate]
≥ 80%: inhibition of growth at 200 ppm [3] | pest or weed control at 200 ppm [4] | pest or weed control at 200 ppm [5]

COc1ccnc(C(=O)N[C@@H](C)C(=O)O[C@@H](C)c2ccc(-c3ccccc3C)cc2)c1O [I.h.001, [(1S)-1-[4-(o-tolyl)phenyl]ethyl] (2S)-2-[(3-hydroxy-4-methoxy-pyridine-2-carbonyl)amino] propanoate]
≥ 80%: inhibition of growth at 200 ppm [1] | inhibition of growth at 200 ppm [2] | inhibition of growth at 200 ppm [6] | inhibition of growth at 200 ppm [3] | pest or weed control at 200 ppm [4] | pest or weed control at 200 ppm [5] | inhibition of growth at 200 ppm [7]

CCc1ccccc1-c1ccc([C@H](C)OC(=O)[C@H](C)NC(=O)c2nccc(OC)c2O)cc1 [I.i.001, [(1S)-1-[4-(2-ethylphenyl)phenyl]ethyl] (2S)-2-[(3-hydroxy-4-methoxy-pyridine-2-carbonyl)amino] propanoate]
≥ 80%: inhibition of growth at 200 ppm [2] | inhibition of growth at 200 ppm [6] | inhibition of growth at 200 ppm [3] | pest or weed control at 200 ppm [4] | pest or weed control at 200 ppm [5]

COc1ccnc(C(=O)N[C@@H](C)C(=O)O[C@@H](C)c2ccc(-c3ccccc3COC(C)(C)C)cc2)c1O [I.k.001, [(1S)-1-[4-[2-(tert-butoxymethyl)phenyl]phenyl]ethyl] (2S)-2-[(3-hydroxy-4-methoxy-pyridine-2-carbonyl)amino] propanoate]
≥ 80%: inhibition of growth at 200 ppm [1] | inhibition of growth at 200 ppm [2] | inhibition of growth at 200 ppm [6] | inhibition of growth at 200 ppm [3] | pest or weed control at 200 ppm [4] | pest or weed control at 200 ppm [5]

COc1ccnc(C(=O)N[C@@H](C)C(=O)O[C@@H](C)c2ccc(-c3cccc(Cl)c3)cc2)c1O [I.r.001, [(1SS)-1-[4-(3-chlorophenyl)phenyl]ethyl] (2S)-2-[(3-hydroxy-4-methoxy-pyridine-2-carbonyl)amino] propanoate]
≥ 80%: inhibition of growth at 200 ppm [1] | inhibition of growth at 200 ppm [2] | inhibition of growth at 200 ppm [6] | inhibition of growth at 200 ppm [3] | pest or weed control at 200 ppm [5] | inhibition of growth at 200 ppm [7]

COc1ccnc(C(=O)N[C@@H](C)C(=O)O[C@@H](C)c2ccc(-c3ccc(Cl)cc3)cc2)c1O [I.u.001, [(1S)-1-[4-(4-chlorophenyl)phenyl]ethyl] (2S)-2-[(3-hydroxy-4-methoxy-pyridine-2-carbonyl)amino] propanoate]
≥ 80%: inhibition of growth at 200 ppm [1] | inhibition of growth at 200 ppm [2] | inhibition of growth at 200 ppm [6] | inhibition of growth at 200 ppm [3] | pest or weed control at 200 ppm [5] | inhibition of growth at 200 ppm [7]

COc1ccnc(C(=O)N[C@@H](C)C(=O)O[C@@H](C)c2ccc(-c3ccc(Br)cc3)cc2)c1OC(C)=O [I.v.019, [(1S)-1-[4-(4-bromophenyl)phenyl]ethyl] (2S)-2-[(3-acetoxy-4-methoxy-pyridine-2-carbonyl)amino] propanoate]
≥ 80%: inhibition of growth at 200 ppm [6] | inhibition of growth at 200 ppm [3] | pest or weed control at 200 ppm [4] | pest or weed control at 200 ppm [5] | inhibition of growth at 200 ppm [7]

COc1ccnc(C(=O)N[C@@H](C)C(=O)O[C@@H](C)c2ccc(-c3ccc(C)cc3)cc2)c1O [I.w.001, [(1S)-1-[4-(p-tolyl)phenyl]ethyl] (2S)-2-[(3-hydroxy-4-methoxy-pyridine-2-carbonyl)amino] propanoate]
≥ 80%: inhibition of growth at 200 ppm [2] | inhibition of growth at 200 ppm [6] | inhibition of growth at 200 ppm [3] | pest or weed control at 200 ppm [4] | pest or weed control at 200 ppm [5] | inhibition of growth at 200 ppm [7]

COc1ccnc(C(=O)N[C@@H](C)C(=O)O[C@@H](C)c2ccc(-c3ccc(C(F)(F)F)cc3)cc2)c1O [I.x.001, [(1S)-1-[4-[4-(trifluoromethyl)phenyl]phenyl]ethyl] (2S)-2-[(3-hydroxy-4-methoxy-pyridine-2-carbonyl)amino] propanoate]
≥ 80%: inhibition of growth at 200 ppm [1] | inhibition of growth at 200 ppm [2] | inhibition of growth at 200 ppm [6] | inhibition of growth at 200 ppm [3] | pest or weed control at 200 ppm [5] | inhibition of growth at 200 ppm [7]
